Results on seven compounds are retold here after patent US8410302B2, “Methoxyimino compounds and fungicide composition comprising same” (Kyung Nong Corporation, priority 2007, dated 2013).

Molecules are shown by their SMILES. Read-outs that look alike come from different tables or passages of the source.

The subject of one experiment is Rhizoctonia solani AG-1. In words: Fungicidal activity against rice sheath blight (RSB) disease, control value. To be noted: for pest or weed control at 2 ppm / pest or weed control at 10 ppm / pest or weed control at 50 ppm / pest or weed control at 100 ppm: Rhizoctonia solani, AG1, in Oryza sativa, read-out: RSB control value (C.V.); for RSB control value (C.V.): 100 ppm, rice sheath blight.

The subject of a further experiment is Erysiphae graminis. The experiment can be described thus: Fungicidal activity against barley powdery mildew (BPM) disease, control value. The format is in vivo. To be noted: for pest or weed control at 2 ppm / pest or weed control at 10 ppm / pest or weed control at 50 ppm / pest or weed control at 100 ppm: 168 h, read-out: BPM control value (C.V.).
The next experiment has as its system Phytophthora infestans. The experiment can be described thus: whole plant or invertebrate. To be noted: for pest or weed control at 2 ppm / pest or weed control at 10 ppm / pest or weed control at 50 ppm / pest or weed control at 100 ppm: Phytophthora infestans, in Solanum lycopersicum, read-out: TLB control value (C.V.); for TLB control value (C.V.): tomato late blight. The format is in vivo.

In another experiment the test system is Botrytis cinerae. The experiment can be described thus: Fungicidal activity against cucumber gray mold rot (CGM) disease, control value. To be noted: for pest or weed control at 100 ppm / CGM control value (C.V.): 100 ppm. In kind it is in vivo.
Experiment [1] has as its system Pyricularia oryzae Carvara KA301. In words: whole plant or invertebrate. In kind it is in vivo. To be noted: for pest or weed control at 2 ppm / pest or weed control at 10 ppm / pest or weed control at 50 ppm / pest or weed control at 100 ppm: Pyricularia oryzae, read-out: RCB control value (C.V.); for RCB control value (C.V.): rice blast.
In another experiment the test system is Puccinia recondita. In words: Fungicidal activity against wheat leaf rust (WLR) disease, control value. The format is in vivo. The note with it: for pest or weed control at 2 ppm / pest or weed control at 10 ppm / pest or weed control at 50 ppm / pest or weed control at 100 ppm: read-out: WLR control value (C.V.).
Where [2] appears, read: Botrytis, read-out: CGM control value (C.V.).
The mark [3] stands for this setting: Hordeum vulgare, 2 ppm, barley powdery mildew.
The mark [4] stands for this setting: Hordeum vulgare, 10 ppm, barley powdery mildew.
Setting [5] is: Hordeum vulgare, 50 ppm, barley powdery mildew.
The mark [6] stands for this setting: Hordeum vulgare, 100 ppm, barley powdery mildew.
Where [7] appears, read: Botrytis, cucumber gray mold rot, read-out: CGM control value (C.V.).

With `CNC(=O)/C(=N/OC)c1ccccc1COc1cc(Br)ccc1C=C(Br)Br` [Example 86, (E)-2-(2-((5-bromo-2-(2,2-dibromovinyl)phenoxy)methyl)phenyl)-2-methoxyimino-N-methylacetamide], the pest or weed control at 2 ppm with Rhizoctonia solani AG-1 came out at 65%; in the experiment on Erysiphae graminis (2 ppm), 90%; with Phytophthora infestans it was 70%; in experiment [1], 30%; in the experiment on Puccinia recondita (Puccinia recondita, 2 ppm) it was 95%. Besides, the pest or weed control at 10 ppm with Rhizoctonia solani AG-1 came to 98%; in the experiment on Erysiphae graminis (10 ppm) it was 100%; with Phytophthora infestans it was 90%; in experiment [1], 90%; with Puccinia recondita (Puccinia recondita, 10 ppm), 100%. For the same compound, the pest or weed control at 50 ppm worked out at 100% with Rhizoctonia solani AG-1; 100% with Erysiphae graminis (50 ppm); 98% in the experiment with Phytophthora infestans; 100% in experiment [1]; 100% with Puccinia recondita (Puccinia recondita, 50 ppm). In addition, the pest or weed control at 100 ppm was 100% in the experiment with Rhizoctonia solani AG-1; 100% in the experiment on Erysiphae graminis (100 ppm); 100% with Phytophthora infestans; 40% with Botrytis cinerae (setting [2]); 100% in experiment [1]; 100% in the experiment with Puccinia recondita (Puccinia recondita, 100 ppm).
Regarding `CNC(=O)/C(=N/OC)c1ccccc1COc1cccc(C=C(F)Cl)c1` [Example 12, (2E)-2-(2-((3-(2-chloro-2-difluorovinyl)phenoxy)methyl)phenyl)-2-methoxyimino-N-methylacetamide], the “RSB control value (C.V.)” value with Rhizoctonia solani AG-1 is 15%. Moreover, the “BPM control value (C.V.)” value in the experiment with Erysiphae graminis (100 ppm, barley powdery mildew) is 80%. Further, the “TLB control value (C.V.)” value with Phytophthora infestans (50 ppm) was 55%; in the experiment with Phytophthora infestans (100 ppm), 93%. For the same compound, the “CGM control value (C.V.)” value with Botrytis cinerae (cucumber gray mold rot) was found to be 40%. For the same compound, the “RCB control value (C.V.)” value in experiment [1] (50 ppm) stood at 90%; in experiment [1] (100 ppm), 97%. Besides, the “WLR control value (C.V.)” value in the experiment with Puccinia recondita (100 ppm, wheat leaf rust) is 82%.
As to `CCOc1cc(C=C(Br)Br)ccc1OCc1ccccc1/C(=N\OC)C(=O)NC` [Example 84, (E)-2-(2-((4-(2,2-dibromovinyl)-2-ethoxyphenoxy)methyl)phenyl)-2-methoxyimino-N-methylacetamide], the pest or weed control at 2 ppm in the experiment with Rhizoctonia solani AG-1 was found to be 55%; in the experiment on Erysiphae graminis (2 ppm), 90%; in the experiment on Phytophthora infestans it was 70%; in experiment [1] it was 30%; in the experiment with Puccinia recondita (Puccinia recondita, 2 ppm), 95%. Also, the pest or weed control at 10 ppm is 98% in the experiment with Rhizoctonia solani AG-1; 100% with Erysiphae graminis (10 ppm); 90% in the experiment with Phytophthora infestans; 90% in experiment [1]; 100% in the experiment with Puccinia recondita (Puccinia recondita, 10 ppm). Moreover, the pest or weed control at 50 ppm is 100% in the experiment on Rhizoctonia solani AG-1; 100% in the experiment with Erysiphae graminis (50 ppm); 98% with Phytophthora infestans; 100% in experiment [1]; 100% in the experiment on Puccinia recondita (Puccinia recondita, 50 ppm). The pest or weed control at 100 ppm in the experiment with Rhizoctonia solani AG-1 amounted to 100%; in the experiment with Erysiphae graminis (100 ppm) it was 100%; with Phytophthora infestans, 100%; in the experiment with Botrytis cinerae (setting [2]), 70%; in experiment [1], 100%; with Puccinia recondita (Puccinia recondita, 100 ppm) it was 100%.
In the case of `CO/N=C(/C(=O)OC)c1ccccc1COc1ccc(C)cc1C=C(Cl)Cl` [Example 45, methyl-(E)-2-(2-((2-(2,2-dichlorovinyl)-4-methylphenoxy)methyl)phenyl)-2-methoxyiminoacetate], the pest or weed control at 2 ppm in the experiment on Rhizoctonia solani AG-1 is 100%; in the experiment on Erysiphae graminis (setting [3]) it was 100%; in the experiment with Phytophthora infestans, 92%; in experiment [1] it was 100%; with Puccinia recondita (2 ppm, wheat leaf rust), 100%. Besides, the pest or weed control at 10 ppm in the experiment on Rhizoctonia solani AG-1 amounted to 100%; in the experiment with Erysiphae graminis (setting [4]), 100%; with Phytophthora infestans, 98%; in experiment [1], 100%; in the experiment with Puccinia recondita (10 ppm, wheat leaf rust) it was 100%. Also, the pest or weed control at 50 ppm in the experiment on Rhizoctonia solani AG-1 stood at 100%; in the experiment with Erysiphae graminis (setting [5]) it was 100%; with Phytophthora infestans, 100%; in experiment [1] it was 100%; in the experiment with Puccinia recondita (50 ppm, wheat leaf rust) it was 100%. The pest or weed control at 100 ppm worked out at 100% in the experiment on Rhizoctonia solani AG-1; 100% in the experiment on Erysiphae graminis (setting [6]); 100% with Phytophthora infestans; 35% in the experiment on Botrytis cinerae (setting [7]); 100% in experiment [1]; 100% in the experiment on Puccinia recondita (100 ppm, wheat leaf rust).
As for `CO/N=C(/C(=O)OC)c1ccccc1COc1c(C)cccc1C=C(Cl)Cl` [Example 49, methyl-(E)-2-(2-((2-(2,2-dichlorovinyl)-6-methylphenoxy)methyl)phenyl)-2-methoxyiminoacetate], the pest or weed control at 2 ppm in the experiment with Rhizoctonia solani AG-1 came out at 95%; with Erysiphae graminis (setting [3]), 100%; in the experiment on Phytophthora infestans, 97%; in experiment [1] it was 93%; in the experiment with Puccinia recondita (2 ppm, wheat leaf rust), 100%. For the same compound, the pest or weed control at 10 ppm in the experiment on Rhizoctonia solani AG-1 worked out at 98%; in the experiment on Erysiphae graminis (setting [4]), 100%; in the experiment on Phytophthora infestans, 99%; in experiment [1], 100%; in the experiment on Puccinia recondita (10 ppm, wheat leaf rust) it was 100%. Moreover, the pest or weed control at 50 ppm in the experiment on Rhizoctonia solani AG-1 stood at 100%; with Erysiphae graminis (setting [5]), 100%; in the experiment with Phytophthora infestans, 100%; in experiment [1], 100%; in the experiment on Puccinia recondita (50 ppm, wheat leaf rust), 100%. Also, the pest or weed control at 100 ppm was 100% in the experiment on Rhizoctonia solani AG-1; 100% in the experiment with Erysiphae graminis (setting [6]); 100% with Phytophthora infestans; 30% in the experiment with Botrytis cinerae (setting [7]); 100% in experiment [1]; 100% in the experiment on Puccinia recondita (100 ppm, wheat leaf rust).
Regarding `CNC(=O)/C(=N/OC)c1ccccc1COc1ccc(C=C(Br)Br)cc1Cl` [Example 64, (E)-2-(2-((4-(2,2-dibromovinyl)-2-chlorophenoxy)methyl)phenyl)-2-methoxyimino-N-methylacetamide], the pest or weed control at 2 ppm was 95% in the experiment on Rhizoctonia solani AG-1; 97% in the experiment with Erysiphae graminis (2 ppm); 99% in the experiment on Phytophthora infestans; 100% in experiment [1]; 100% with Puccinia recondita (Puccinia recondita, 2 ppm). For the same compound, the pest or weed control at 10 ppm came out at 100% in the experiment on Rhizoctonia solani AG-1; 100% in the experiment with Erysiphae graminis (10 ppm); 100% in the experiment on Phytophthora infestans; 100% in experiment [1]; 100% in the experiment with Puccinia recondita (Puccinia recondita, 10 ppm). Further, the pest or weed control at 50 ppm was 100% in the experiment with Rhizoctonia solani AG-1; 100% with Erysiphae graminis (50 ppm); 100% in the experiment with Phytophthora infestans; 40% in the experiment with Botrytis cinerae (Botrytis, 50 ppm, read-out: CGM control value (C.V.)); 100% in experiment [1]; 100% in the experiment with Puccinia recondita (Puccinia recondita, 50 ppm). Also, the pest or weed control at 100 ppm with Rhizoctonia solani AG-1 turned out to be 100%; in the experiment on Erysiphae graminis (100 ppm) it was 100%; in the experiment with Phytophthora infestans, 100%; in the experiment on Botrytis cinerae (setting [2]), 80%; in experiment [1] it was 100%; with Puccinia recondita (Puccinia recondita, 100 ppm), 100%.
With `CO/N=C(/C(=O)OC)c1ccccc1CON=C(C)c1ccc(C=C(F)F)cc1` [Example 29, methyl-(E)-2-[[[[[2-[4-(2,2-difluorovinyl)phenyl](1-methyl)methylidene]amino]oxy]methyl]phenyl]-2-methoxyiminoacetate], in the experiment on Rhizoctonia solani AG-1, the “RSB control value (C.V.)” value worked out at 30%. Moreover, the “BPM control value (C.V.)” value with Erysiphae graminis (2 ppm, barley powdery mildew) came to 15%; in the experiment on Erysiphae graminis (10 ppm, barley powdery mildew), 60%; in the experiment on Erysiphae graminis (50 ppm, barley powdery mildew), 93%; in the experiment with Erysiphae graminis (100 ppm, barley powdery mildew), 100%. Also, the “TLB control value (C.V.)” value in the experiment on Phytophthora infestans (2 ppm), with Phytophthora infestans (10 ppm), in the experiment on Phytophthora infestans (50 ppm) and in the experiment on Phytophthora infestans (100 ppm) was 100% throughout. In addition, in the experiment with Botrytis cinerae (cucumber gray mold rot), the “CGM control value (C.V.)” value turned out to be 24%. Also, the “RCB control value (C.V.)” value in experiment [1] (2 ppm), in experiment [1] (10 ppm), in experiment [1] (50 ppm) and in experiment [1] (100 ppm) was 100% each time. Moreover, the “WLR control value (C.V.)” value in the experiment with Puccinia recondita (2 ppm, wheat leaf rust) is on record as 100%; in the experiment with Puccinia recondita (10 ppm, wheat leaf rust), 100%; in the experiment on Puccinia recondita (50 ppm, wheat leaf rust) it was 100%; in the experiment with Puccinia recondita (100 ppm, wheat leaf rust), 100%.
